# Measurements from PubChem BioAssay (NCI).
#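 Five concentrations, 48 hours, 96-well plates. TGI is the concentration that stops growth completely.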
# Tests used:
# Assay in all cases: growth of human tumour cells (NCI), 48 h
# MOLT-4 leukemia = tested on: MOLT-4 leukemia
# SF-268 CNS = tested on: SF-268 CNS
# NCI-H226 lung = tested on: NCI-H226 lung
# OVCAR-3 ovarian = tested on: OVCAR-3 ovarian
# UACC-257 melanoma = tested on: UACC-257 melanoma
# HT29 colon = tested on: HT29 colon
# HCT-15 colon = tested on: HCT-15 colon
# KM12 colon = tested on: KM12 colon
# SK-MEL-5 melanoma = tested on: SK-MEL-5 melanoma
# SF-295 CNS = tested on: SF-295 CNS
# MDA-MB-435 = tested on: MDA-MB-435
# RPMI-8226 leukemia = tested on: RPMI-8226 leukemia
# A549 NSCLC = tested on: A549 NSCLC
# COLO 205 colon = tested on: COLO 205 colon
# LOX IMVI melanoma = tested on: LOX IMVI melanoma
# HCC-2998 colon = tested on: HCC-2998 colon
# K-562 leukemia = tested on: K-562 leukemia
# RXF 393 renal = tested on: RXF 393 renal
Structure (SMILES),TGI (MOLT-4 leukemia) [µM],TGI (SF-268 CNS) [µM],TGI (NCI-H226 lung) [µM],TGI (OVCAR-3 ovarian) [µM],TGI (UACC-257 melanoma) [µM],TGI (HT29 colon) [µM],TGI (HCT-15 colon) [µM],TGI (KM12 colon) [µM],TGI (SK-MEL-5 melanoma) [µM],TGI (SF-295 CNS) [µM],TGI (MDA-MB-435) [µM],TGI (RPMI-8226 leukemia) [µM],TGI (A549 NSCLC) [µM],TGI (COLO 205 colon) [µM],TGI (LOX IMVI melanoma) [µM],TGI (HCC-2998 colon) [µM],TGI (K-562 leukemia) [µM],TGI (RXF 393 renal) [µM]
COC(=O)[C@@]1(Cc2ccc(O)cc2)C[C@@H]2Cc3ccccc3N2N1,> 100,> 100,> 100,> 100,71.7,> 100,> 100,> 100,> 100,> 100,> 100,> 100,> 100,> 100,> 100,,,
COc1cc(CNC2=NCCC2)cc(OC)c1OC,> 100,> 100,> 100,> 100,> 100,> 100,> 100,,> 100,> 100,,,> 100,> 100,,> 100,> 100,> 100
COC(=O)c1c2c(cc3c1CC1(C3)Cc3cc4c(c(C(C)=O)c3C1)CCC4)C=CC2 (stereo not given),> 31.6,> 31.6,> 31.6,> 31.6,> 31.6,> 31.6,> 31.6,> 31.6,> 31.6,> 31.6,> 31.6,> 31.6,> 31.6,> 31.6,,,> 31.6,
CC(C)(C)CNC(=O)NCn1cc(-c2ccccc2)nn1,> 100,> 100,> 100,,> 100,> 100,> 100,> 100,> 100,> 100,,> 100,> 100,> 100,> 100,> 100,> 100,
O=C(OC[C@H]1C[C@H]2C(=O)CCC[C@H]2O1)c1ccccc1,> 100,> 100,> 100,> 100,> 100,> 100,> 100,> 100,> 100,> 100,> 100,> 100,> 100,> 100,> 100,,> 100,
CCOC(=O)/C(N=Nc1ccc(-n2c(C)nc3ccc(Br)cc3c2=O)cc1)=C(/C)O,> 100,> 100,> 100,> 100,> 100,> 100,> 100,> 100,31.9,> 100,> 100,> 100,> 100,> 100,> 100,,> 100,
Cc1ccc2c(c1)C1(OC(=O)c3ccccc31)c1ccc(F)cc1O2 (stereo not given),54.9,> 100,85.8,> 100,> 100,> 100,,> 100,> 100,,,74.1,> 100,> 100,> 100,> 100,> 100,
CC(=O)OC1CC2(C)OC(Cc3ccccc32)O1 (stereo not given),> 100,> 100,> 100,> 100,> 100,> 100,,> 100,,> 100,,> 100,> 100,> 100,> 100,> 100,> 100,> 100
C[n+]1c2ccccc2n2c3ccccc3c(NCCc3ccccn3)c(C#N)c21,> 22.5,> 22.4,16.6,> 25.7,16.6,> 100,17.4,29,,15.9,4,,50.1,5.88,3.41,1.24,> 100,4.62
Cc1ccc(S(=O)(=O)N2c3ccccc3[C@H]3CCC=C[C@H]32)cc1,> 73.8,> 76.1,47.3,28.4,> 95.4,19.2,> 69.1,45.7,> 97.5,32.4,,43,> 100,24.6,56.5,> 76.5,> 81.3,19
COc1cc(OC)c2c(=O)c(OC)c(-c3ccc4c(c3)OCO4)oc2c1OC,> 100,> 100,> 100,> 100,> 100,> 100,> 100,> 100,89.8,> 100,> 100,,> 100,> 100,> 100,> 100,> 100,> 100
Cc1ccc(NCC(=O)N2CC(=O)Nc3ccccc32)cc1,> 100,> 100,> 100,> 100,> 100,> 100,> 100,> 100,> 100,> 100,,> 100,> 100,> 100,> 100,> 100,> 100,> 100
c1cnc2c(c1)-n1cccc1C1(CCSC1)NN2 (stereo not given),> 100,> 100,> 100,> 100,> 100,> 100,> 100,> 100,> 100,> 100,,> 100,> 100,> 100,> 100,> 100,> 100,
COC(=O)C(CC(C)=O)CS(=O)(=O)CC(=O)C(=O)Nc1cccc([N+](=O)[O-])c1 (stereo not given),,> 100,> 100,> 100,> 100,,> 100,> 100,> 100,,,> 100,> 100,> 100,> 100,> 100,> 100,> 100
CCC12CCCNC1c1c(n(C)c3ccccc13)C(C(=O)OC)C2 (stereo not given),> 275,> 275,> 275,91.1,255,114,> 275,161,82.5,124,,199,> 275,82.5,> 275,> 275,> 275,153
COC(=O)C(C(=O)C(=O)Nc1ccccc1C#N)c1nc2ccc([N+](=O)[O-])cc2[nH]c1=O (stereo not given),> 100,> 100,> 100,> 100,> 100,> 100,> 100,> 100,> 100,> 100,> 100,,> 100,> 100,> 100,> 100,,> 100
O=c1oc2ccccc2c(O)c1/C=N/C(=S)NCc1ccccc1,> 100,,> 100,> 100,> 100,> 100,> 100,> 100,> 100,> 100,> 100,,> 100,> 100,> 100,> 100,,
COc1ccc(N2C(=O)c3c(c4[nH]c5ccc(OC)cc5c4c4ccc(C(C)(C)C)cc34)C2=O)cc1,> 100,> 100,> 100,> 100,> 100,> 100,> 100,> 100,> 100,> 100,,> 100,> 100,> 100,,> 100,> 100,
CCCC(N)C(=O)c1ccccc1 (stereo not given),,> 100,> 100,> 100,> 100,> 100,> 100,> 100,> 100,> 100,,> 100,> 100,> 100,> 100,> 100,> 100,> 100
Cc1cc(C)n2c(-c3ccccc3)c(C)cc2n1,,> 100,> 100,83.3,> 100,> 100,> 100,> 100,> 100,> 100,,,> 100,> 100,> 100,> 100,> 100,> 100
CSc1cc(Br)ccc1-n1c(C(=O)c2ccccc2)c(SC)n(-c2ccccc2)c1=O,> 100,> 100,> 100,> 100,> 100,> 100,> 100,> 100,> 100,> 100,,,> 100,> 100,> 100,> 100,> 100,
COC(=O)C1=CC2CC1C(S(=O)(=O)c1ccccc1)C2S(=O)(=O)c1ccccc1 (stereo not given),19.6,53.5,40.2,21.2,32.7,28.9,26.8,,33.2,53.8,,29.3,69.3,22,27.1,34.4,32.3,
CC(Oc1ccc(OCC2CCCCC2)cc1)C(=O)NCCO (stereo not given),> 100,> 100,> 100,> 100,> 100,> 100,> 100,> 100,> 100,> 100,,,> 100,,> 100,,> 100,> 100
COc1cccc(CCNc2c(C#N)c3nc4ccccc4n3c3ccccc23)c1,> 100,> 100,> 100,> 100,> 100,> 100,> 100,> 44.5,0.872,> 100,,> 100,> 100,> 47.4,> 100,> 100,> 100,> 100
C[C@H](NC(=O)n1c2ccccc2c2ccccc21)C(=O)O,> 100,> 100,> 100,> 100,> 100,> 100,> 100,> 100,> 100,> 100,,> 100,> 100,> 100,> 100,> 100,> 100,> 100
CCOC(=O)CSc1nnc(CSc2nc(-c3ccccc3)c(-c3ccccc3)[nH]2)n1-c1ccccc1,> 93.8,> 81.3,> 73.6,> 100,> 67.4,> 100,> 100,> 100,> 100,> 100,,> 100,> 100,> 100,> 100,37.1,> 100,39.5
Cc1ccc(N=C2S/C(=C3/CCC=C3N3CCOCC3)N(c3ccc(Cl)cc3)C2=Nc2ccc(C)cc2)cc1,> 100,,> 100,,> 100,> 100,> 100,> 100,> 100,,,> 100,> 100,> 100,,> 100,> 100,> 100
Cc1[nH]n(C(=N)N)c(=O)c1CCO,,> 100,> 100,> 100,> 100,> 100,> 100,,> 100,> 100,> 100,,> 100,> 100,> 100,> 100,> 100,> 100
Cc1cc2oc(-c3ccccc3)c(C)c(=O)c2c2c1OC(C)(C)S2,> 100,> 100,> 100,> 100,> 100,> 100,> 100,> 100,> 100,> 100,,> 100,> 100,> 100,> 100,> 100,> 100,> 100
